From ChEMBL document CHEMBL1201862, “PubChem BioAssay data set” (2004) come the findings set out here.

Active and inactive are the calls of the source.

For orientation: AC50 means the concentration giving half of the maximal activity seen. What is called EC50 is the midpoint of the concentration-response curve.

For one test, the target named is Cytochrome P450 3A4 (Homo sapiens, UniProt P08684).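 Further: CYP3A4 tested as one member of a cytochrome P450 panel screen.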
The nature of test [1]: growth suppression of beta-catenin-knockout colon cells, dose response, cell-based, HCT116, human colon tumor (AID 1045).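 Further: HCT116 colon tumor cells with beta catenin knocked out; cells exposed to compound for 60 hours.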 In kind it is functional.
Test [2] in a line: growth suppression of PTEN-null colon cells, dose response, cell-based, HCT116 PTEN knockout (AID 1047).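 Further: HCT116 colon tumor cells with PTEN knocked out; cells exposed to compound for 60 hours before readout; potency for loss of cell viability measured by luminescence.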 In kind it is functional.
Another test has as its system H4. Kind of test: Luminescence Cell-Based Dose Response HTS to Identify Activators of 5'UTR Stem-Loop Driven Prion Protein mRNA Translation in H4 Neuroglioblastoma Cells. [Related pubchem assays: 1829 (Project Summary), 1814 (Primary HTS)]. In kind it is functional. Particulars: Homo sapiens.
Test [3] can be described thus: Luminescence Cell-Based Dose Confirmation HTS to Identify Activators of 5'UTR Stem-Loop Driven Alpha-Synuclein mRNA Translation in H4 Neuroglioblastoma Cells. [Related pubchem assays: 1829 (Project Summary), 1814 (Primary HTS)]. The class given is functional.
Test [4] is described as follows: Luminescence Cell-Based Dose Response HTS to Identify Activators of Luciferase Translation or Activity in H4 […] Cells. [Related pubchem assays: 1829 (Project Summary), 1814 (Primary HTS)]. In kind it is functional.
A further test addresses T1, Streptokinase A (Streptococcus pyogenes serotype M1, UniProt P10520).
T1 sequence (P10520 whole entry): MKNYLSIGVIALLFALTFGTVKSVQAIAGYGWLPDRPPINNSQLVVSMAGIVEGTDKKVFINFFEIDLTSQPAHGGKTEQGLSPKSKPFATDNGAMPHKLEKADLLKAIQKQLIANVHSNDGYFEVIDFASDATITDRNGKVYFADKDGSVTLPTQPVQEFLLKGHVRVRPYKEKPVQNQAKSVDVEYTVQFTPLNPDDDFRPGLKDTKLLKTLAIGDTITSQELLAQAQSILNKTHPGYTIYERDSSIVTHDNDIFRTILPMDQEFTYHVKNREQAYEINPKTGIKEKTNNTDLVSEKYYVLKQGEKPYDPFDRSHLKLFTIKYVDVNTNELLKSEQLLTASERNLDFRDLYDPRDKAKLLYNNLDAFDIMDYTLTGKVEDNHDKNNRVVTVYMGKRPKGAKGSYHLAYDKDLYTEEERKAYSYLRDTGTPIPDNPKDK
The test can be described thus: S. pyogenes streptokinase expression inhibitors, potency, dose response, plasminogen activation absorbance, OD405 (AID 1914).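 Further: secreted streptokinase activity via plasminogen activation per viability signal from cell pellet.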 In kind it is functional, Streptococcus pyogenes M1 GAS.

Test [5] in a line: Luminescence Cell-Based Dose Retest to Confirm Inhibitors of Cancer Stem Cells. [Related pubchem assays (depositor defined):AID2717, AID2721]. In kind it is functional. Particulars: Homo sapiens.
Test [6] has as its system Streptococcus sp. 'group A'. Kind of test: growth inhibition of control SK(-) GAS strain, dose response, counter-screen for streptokinase expression inhibitor project, luminescence, kanamycin, BacTiterGlo, confirmation (AID 1900). The class given is functional, organism-based.
A further test relates to Streptococcus. Kind of test: Group A Streptococcus viability loss, dose response, counter-screen for streptokinase expression inhibitor project, luminescence, BacTiterGlo (AID 1915).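 Further: potency for reduction of bacterial viability or growth.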 The class given is functional, organism-based. (In general: Counterscreens check selectivity or assay interference.)
The next test deals with INS1. Kind of test: beta cell apoptosis inhibitors, cytokine rescue, dose response, luminescence, retest (AID 449756).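 Further: cell death triggered by IL-1 beta plus TNF-alpha plus IFN-gamma mixture; protective hits raise ATP signal compared with cytokine alone wells.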 The class given is functional, cell-based. The following applies: Rattus norvegicus.
Test [7] is described as follows: inhibitors of SNCA 5'UTR-driven reporter translation, confirmation, H4 neuroglioma cells, luminescence (AID 1988). The class given is functional, cell-based.
Test [8] in a line: Luminescence Cell-Based Dose Response HTS to Identify Inhibitors of 5'UTR Stem-Loop Driven Prion Protein mRNA Translation in H4 Neuroglioblastoma Cells. [Related pubchem assays: 1827 (Project Summary), 1813 (Primary HTS)]. The class given is functional.
Another test concerns the target Cytochrome P450 2C19 (Homo sapiens, UniProt P33261). Kind of test: Cytochrome panel assay with activity outcomes. Panel member name: p450-cyp2c19 Compounds with AC50 equal or less than 10 uM are considered active. In kind it is functional. The following applies: read-out: AC50.
Test [9] in a line: inhibitors of intracellular T. cruzi replication, confirmation, NIH3T3 host cells, beta-gal luminescence (AID 2044).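 Further: intracellular parasites grown in NIH/3T3 mouse fibroblasts as host cells; luminescent beta-galactosidase reporter signal from transgenic T. cruzi replicating inside host cells; inhibitors lower the luminescence signal.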 The class given is functional, cell-based.
Test [10] in a line: cytotoxicity toward NIH3T3 fibroblasts, dose response, counter-screen, cell-based, ATP luminescence, mouse fibroblasts (AID 2010).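 Further: cells exposed to compound for about 90 hours before reading.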 The class given is functional.

Cytochrome P450 3A4, sequence (P08684 whole entry): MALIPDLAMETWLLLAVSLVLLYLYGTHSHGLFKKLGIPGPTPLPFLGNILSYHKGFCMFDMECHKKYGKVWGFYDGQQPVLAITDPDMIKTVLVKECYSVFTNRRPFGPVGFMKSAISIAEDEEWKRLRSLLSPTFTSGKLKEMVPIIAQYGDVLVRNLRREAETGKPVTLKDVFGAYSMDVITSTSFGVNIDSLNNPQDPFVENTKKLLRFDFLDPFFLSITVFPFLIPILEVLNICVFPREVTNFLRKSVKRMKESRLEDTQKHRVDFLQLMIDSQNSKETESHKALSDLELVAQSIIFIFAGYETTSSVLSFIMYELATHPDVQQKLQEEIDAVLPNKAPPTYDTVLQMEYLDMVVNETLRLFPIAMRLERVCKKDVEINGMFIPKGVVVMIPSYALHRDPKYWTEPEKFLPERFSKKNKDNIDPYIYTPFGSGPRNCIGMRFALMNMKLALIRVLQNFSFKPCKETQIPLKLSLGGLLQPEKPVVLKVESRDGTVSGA
Cytochrome P450 2C19, sequence (P33261 whole entry): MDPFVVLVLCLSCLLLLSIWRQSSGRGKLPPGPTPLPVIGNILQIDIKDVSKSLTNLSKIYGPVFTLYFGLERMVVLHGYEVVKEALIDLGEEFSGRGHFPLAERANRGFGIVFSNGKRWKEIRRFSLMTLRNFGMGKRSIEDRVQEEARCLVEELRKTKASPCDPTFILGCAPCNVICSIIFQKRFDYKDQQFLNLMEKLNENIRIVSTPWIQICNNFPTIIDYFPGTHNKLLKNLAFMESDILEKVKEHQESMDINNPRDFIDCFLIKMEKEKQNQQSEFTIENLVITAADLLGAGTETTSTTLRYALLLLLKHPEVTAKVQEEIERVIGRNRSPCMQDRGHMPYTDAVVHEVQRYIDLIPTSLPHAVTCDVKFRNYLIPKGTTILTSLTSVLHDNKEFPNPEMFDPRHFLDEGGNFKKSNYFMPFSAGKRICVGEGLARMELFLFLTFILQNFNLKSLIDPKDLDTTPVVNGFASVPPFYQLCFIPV

Regarding `O=C(NCCCN1CCOCC1)c1cc2c(s1)CSC2`, the AC50 on Cytochrome P450 3A4 is 15.8 µM (inconclusive).

As to `CC(=O)N1CCC2(CCCN(C(=O)Nc3cccc(F)c3)C2)CC1`, the AC50 on Cytochrome P450 3A4 is 31.6 µM (inconclusive).

`O=C(Nc1ccccc1[N+](=O)[O-])C1C(c2ccccc2)=C1c1ccccc1`: the AC50 at Cytochrome P450 3A4 is 20 µM (inconclusive).

Consider `CCC(c1nnnn1Cc1ccco1)N(CCc1ccccc1)Cc1cc2ccc(OC)cc2nc1O` (stereo unspecified), for which the figures for the EC50 in test [1] and in [2] were 23.6 µM (active) and 22.8 µM (active), respectively.

For the molecule `O=C(Cn1cc(SCc2ccccc2Cl)c2ccccc21)N1CCOCC1`, the values for the EC50 (in the test on H4; in test [3]; in test [4]) were 21 µM (active), 23.8 µM (active) and 8.21 µM (active), respectively.

As for `Clc1ccccc1-c1nnc2sc(-c3ccc4c(c3)OCO4)nn12`, the EC50 in the test on H4 is 57.6 µM (inconclusive); in test [3], > 120 µM (not active); in test [4] it was 10.9 µM (active).

As to `O=C(Cn1ccs/c1=N/C(=O)C(F)(F)F)c1ccccc1`, the EC50 in the test on H4 was 81.7 µM (inconclusive); in test [3], 56.9 µM (active); in test [4], 47.9 µM (active).

On to `Cc1ccc(NC(=O)Cc2nc(CSc3nnc(-c4ccc5c(c4)OCO5)o3)cs2)cc1`, for which the EC50 is 6.97 µM (active) in the test on H4, 82.5 µM (active) in test [3] and 53.6 µM (active) in [4].

Regarding `C=C(C)COc1ccc(-c2nc(N)ncc2-c2ccc(Cl)cc2)c(O)c1`, the EC50 was > 150 µM (not active) on Streptokinase A, 6.33 µM (active) in test [6] and 8.12 µM (active) in the test on Streptococcus. In addition, the AC50 in test [5] is 3.57 µM (active).

For `CCc1c(C2(O)CCCCC2)[nH]c2cc(C(F)(F)F)ccc12`, the AC50 with INS1 was 7.52 µM (active); in test [5], 2.64 µM (active).

As for `Cc1cc(C)c(NC=C2C(=O)NC(=O)NC2=O)c(C)c1`, the EC50 in test [7] is > 120 µM (not active); in test [8] it was > 60 µM (not active).

On to `C/C(=N\NC(=O)C1=NNC(=O)C1C)c1cccs1` (stereo unspecified), for which the figures for the EC50 (with H4; in [3]; in test [4]) were 29.9 µM (active), 13 µM (active) and > 120 µM (not active), respectively.

As for `CCCCNC(=O)CSc1nc2cc(OC)c(OC)cc2c(=O)n1Cc1ccc(OC)cc1`, the half-maximal activity concentration (AC50) on Cytochrome P450 2C19 was 6.31 µM (inconclusive). Besides, the values for the EC50 in [1] and in test [2] were 10.3 µM (active) and 6.66 µM (active), respectively.

With `CCc1cc2c(=O)c(-c3ccc4c(c3)OCCO4)c(C)oc2cc1OS(C)(=O)=O`, the values for the EC50 in test [1] and in test [2] were 28.1 µM (active) and 21.3 µM (active), respectively.

For the molecule `CCC1CCCCN1C(=O)CSc1nc2c3ccccc3nc-2c(O)n1C` (stereo unspecified), the EC50 in test [1] is 21.2 µM (active); in test [2], 21.9 µM (active).

As to `CN1C(=O)C(O)(CC(=O)c2ccccc2O)c2cc(Br)ccc21` (stereo unspecified), the results for the EC50 in test [1] and in [2] were 17 µM (active) and 18 µM (active), respectively.

Turning to `Cc1ccc(C23CC4CC(CC(NC(=O)N5CCN(C)CC5)(C4)C2)C3)cc1`, the EC50 was 17.7 µM (active) in test [1] and 18 µM (active) in test [2].

Regarding `N#Cc1c(N2CCCC2)nsc1-c1ccccc1`, the EC50 in the test with H4 is 23.2 µM (active); in test [3] it was 7.09 µM (active); in test [4], 12.5 µM (active).

Take `COc1cc2c(=O)n(Cc3ccco3)c(=O)n(CC(=O)c3ccc(Br)cc3)c2cc1OC`: the EC50 is 9.3 µM (active) in test [1] and 8.57 µM (active) in [2].

With `COc1cccc(NC(=O)COC(=O)c2c3c(nc4ccccc24)CCC(C)C3)c1` (stereo unspecified), the half-maximal effective concentration (EC50) is 2.18 µM (active) in test [9], 14.4 µM (active) in test [1], 8.9 µM (active) in test [2] and > 60 µM (not active) in [10].

`[O-][n+]1c2c([n+]([O-])c3cc(N4CCCC4)c(F)cc31)CCCC2`: the values for the EC50 (in the test with H4; in [3]; in test [4]) were 7.53 µM (active), > 60 µM (not active) and 20.3 µM (active), respectively.
